Test results reported in the NIST ThermoML archive (doi:10.1021/je030226s).

Assays:
[1] = refractive index (Na D-line) (dimensionless); xn = mol fraction of the nth substance listed; conditions: 101.32 kPa, Liquid
[2] = xn = mol fraction of the nth substance listed; conditions: 101.32 kPa, Liquid

CCCCCl [1-chlorobutane] + CCCO
Conditions	mass density, 288.15 K [kg/m3]	mass density, 298.15 K [kg/m3]	mass density, 308.15 K [kg/m3]	refractive index, 288.15 K	refractive index, 298.15 K	refractive index, 308.15 K	viscosity, 288.15 K [mPa·s]	viscosity, 298.15 K [mPa·s]	viscosity, 308.15 K [mPa·s]
[1], x2 = 0	–	–	–	1.4045	1.3993	1.3941	–	–	–
[1], x2 = 0.05	–	–	–	1.4036	1.3984	1.3931	–	–	–
[1], x2 = 0.1	–	–	–	1.4028	1.3976	1.3923	–	–	–
[1], x2 = 0.2	–	–	–	1.4013	1.3962	1.3909	–	–	–
[1], x2 = 0.3	–	–	–	1.3998	1.3948	1.3895	–	–	–
[1], x2 = 0.4	–	–	–	1.3984	1.3934	1.3882	–	–	–
[1], x2 = 0.5	–	–	–	1.3968	1.3919	1.3869	–	–	–
[1], x2 = 0.6	–	–	–	1.3952	1.3904	1.3855	–	–	–
[1], x2 = 0.7	–	–	–	1.3934	1.3888	1.384	–	–	–
[1], x2 = 0.8	–	–	–	1.3914	1.387	1.3824	–	–	–
[1], x2 = 0.9	–	–	–	1.3892	1.385	1.3807	–	–	–
[1], x2 = 0.95	–	–	–	1.3881	1.384	1.3798	–	–	–
[2], x2 = 0	892.2	881	869.7	–	–	–	0.472	0.423	0.382
[2], x2 = 0.05	888.3	877.2	866	–	–	–	0.473	0.426	0.384
[2], x2 = 0.1	884.9	873.8	862.6	–	–	–	0.495	0.44	0.395
[2], x2 = 0.2	878.2	867.3	856.2	–	–	–	0.525	0.461	0.409
[2], x2 = 0.3	871.2	860.5	849.7	–	–	–	0.587	0.511	0.447
[2], x2 = 0.4	864	853.5	842.9	–	–	–	0.672	0.576	0.498
[2], x2 = 0.5	856.3	846.1	835.8	–	–	–	0.795	0.67	0.572
[2], x2 = 0.6	848.1	838.3	828.3	–	–	–	0.965	0.802	0.673
[2], x2 = 0.7	839.2	829.8	820.3	–	–	–	1.202	0.977	0.804
[2], x2 = 0.8	829.6	820.7	811.5	–	–	–	1.503	1.206	0.989
[2], x2 = 0.9	819.2	810.7	802	–	–	–	1.94	1.531	1.229
[2], x2 = 0.95	813.5	805.3	796.9	–	–	–	2.2	1.729	1.375
